Data published in publication PMC6394990, “Detailed characterization of the solution kinetics and thermodynamics of biotin, biocytin and HABA binding to avidin and streptavidin” (PLoS ONE, 2019).
Values joined by “and” are separate entries in the source; they are usually repeats but may differ in a detail not shown here. Identical values can stand only once. Like-named read-outs stand apart in the source and are kept apart here.

Assays:
avidin (AV) [1] = target: T1, avidin (AV) (Gallus gallus, UniProt P02701); assay: Steady-state anisotropy (rss), AV complex; type: physicochemical
T1 construct: purchased Calbiochem (La Jolla, CA)
Experimental: The lifetimes (τ), steady state anisotropies (rss), time-resolved anisotropies (rt) and quantum yields (QY) of the complexes (at 20 ± 0.1°C and pH 8) were collected with a dye-labeled B7 probe concentration of 20–40 nM and 1040–2080 nM of either protein (AV or SAV) to ensure that only one binding site in the tetramer was filled with a ligand (AB1 filling model).
The rss measurements were collected using the Giblin-Parkhurst modification of the Wampler-Desa method as described previously. The fluorescence signal was detected in a model A-1010 Alphascan fluorimeter (Photon Technologies, Inc., Birmingham, NJ) equipped with an R928 PMT (Hamamatsu, Bridgewater, NJ). The excitation was provided by an Ar^+ ion laser (Coherent Innova 70–4 Argon, Santa Clara, CA) at 488 nm and 5–10 mW of power incident on the sample. A photoelastic modulator (PEM-80; HINDS International, Inc., Portland, OR) was placed between the laser source and the sample compartment with a retardation level of 1.22π, and the PEM stress axis orientated 45° with respect to the E vector of the laser beam. Two signals were acquired with the PEM alternating between “on” and “off” positions for 10 seconds and the data fitted to a least squared straight line to minimize noise. A minimum of six of these independent measurements were averaged to acquire the rss values. The fluorimeter G factor was determined using a film polarizer and analyzer with an excitation at 488 nm provided by a xenon arc lamp (model A1010, Photon Technologies Inc, Princeton, NJ). The dissociation reactions of dye-labeled B7 and protein complexes were monitored by fluorescence changes and were also collected in the fluorimeter described above.

streptavidin (SAV) [2] = target: T2, streptavidin (SAV) (Streptomyces avidinii, UniProt P22629); assay: Stopped-flow association kinetics of dye-labeled biotin probes binding to streptavidin (F(t), rF(t); Arrhenius plots/global fitting); set-up: kcal/mol (from Arrhenius slope) / Eon for BFl: unit not given here; details: for halftime of association, F¯(t): probe 20 nM
T2 construct: purchased Sigma Aldrich (St. Louis, MO)
Summary of the method: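 Dye-labeled biotin probes were mixed with streptavidin by stopped-flow in 10 mM Tris-HCl, 100 mM KCl, 2.5 mM MgCl2, 1 mM CaCl2, pH 8. Fluorescence F(t) and anisotropy rF(t) were derived from AC/DC signals (G = 0.82), normalized to 1 at t = 0, and reaction models were discriminated by squared residuals of global fits.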

streptavidin (SAV) [3] = target: T2, streptavidin (SAV); assay: Intrinsic lifetime, dynamic quantum yield and fraction of non-statically quenched molecules, SAV complex; type: physicochemical
avidin (AV) [4] = target: T1, avidin (AV); assay: Intrinsic lifetime, dynamic quantum yield and fraction of non-statically quenched molecules, AV complex; type: physicochemical
[5] = SAV complex, mono-ionic fluorescein species

T2 sequence (P22629 25-183): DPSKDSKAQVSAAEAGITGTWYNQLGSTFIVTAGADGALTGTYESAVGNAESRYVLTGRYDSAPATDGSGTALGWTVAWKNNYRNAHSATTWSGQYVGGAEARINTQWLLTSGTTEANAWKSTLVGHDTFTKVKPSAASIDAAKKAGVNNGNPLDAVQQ
T1 sequence (P02701 25-152): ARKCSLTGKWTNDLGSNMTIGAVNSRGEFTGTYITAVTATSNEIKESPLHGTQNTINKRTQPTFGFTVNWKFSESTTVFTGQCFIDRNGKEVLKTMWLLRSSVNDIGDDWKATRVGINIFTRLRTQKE

O=C(CCCC[C@@H]1SC[C@@H]2NC(=O)N[C@@H]21)NCCNC(=O)c1ccc(-c2c3ccc(=O)cc-3oc3cc(O)ccc23)c(C(=O)O)c1 [BFl, Biotin-4-fluorescein]
Steady State Anisotropy rss (avidin (AV) [1]; AV complex (AB1), 20°C): 0.180 ± 0.003
AV-increment (%) (avidin (AV) [1]; increase of rss against unbound): 757.1%
rss, + AV (avidin (AV) [1]; steady-state anisotropy): 0.18
kon binding to SAV, fold faster than binding to AV (streptavidin (SAV) [2]; 25°C): 4 X
Eon for BFl (streptavidin (SAV) [2]; Enthalpy block, SAV): 6.0
kon by corrected fluorescence anisotropy rF(t) (streptavidin (SAV) [2]; SAV-BFl, 10 °C, 200 nM): 37.5 ± 1.2 µM⁻¹ s⁻¹
kon (streptavidin (SAV) [2]; SAV-BFl, 10 °C, 200 nM, read-out: kon by corrected fluorescence anisotropy rF(t)): 3.75e+07 M⁻¹ s⁻¹
kon (streptavidin (SAV) [2]; SAV-BFl, 10 °C, 200 nM, read-out: kon by fluorescence change F(t)): 3.73e+07 M⁻¹ s⁻¹
kon (streptavidin (SAV) [2]; SAV-BFl, 10 °C, read-out: kon, Average): 3.74e+07 M⁻¹ s⁻¹
kon by corrected fluorescence anisotropy rF(t) (streptavidin (SAV) [2]; SAV-BFl, 15 °C, 200 nM): 45.0 ± 1.0 µM⁻¹ s⁻¹
kon (streptavidin (SAV) [2]; SAV-BFl, 15 °C, 200 nM, read-out: kon by corrected fluorescence anisotropy rF(t)): 4.5e+07 M⁻¹ s⁻¹
kon (streptavidin (SAV) [2]; SAV-BFl, 15 °C, 200 nM, read-out: kon by fluorescence change F(t)): 4.48e+07 M⁻¹ s⁻¹
kon by corrected fluorescence anisotropy rF(t) (streptavidin (SAV) [2]; SAV-BFl, 15 °C, 400 nM): 45.0 ± 1.7 µM⁻¹ s⁻¹
kon (streptavidin (SAV) [2]; SAV-BFl, 15 °C, 400 nM, read-out: kon by corrected fluorescence anisotropy rF(t)): 4.5e+07 M⁻¹ s⁻¹
kon (streptavidin (SAV) [2]; SAV-BFl, 15 °C, 400 nM, read-out: kon by fluorescence change F(t)): 4.59e+07 M⁻¹ s⁻¹
kon by corrected fluorescence anisotropy rF(t) (streptavidin (SAV) [2]; SAV-BFl, 15 °C, 800 nM): 43.8 ± 1.9 µM⁻¹ s⁻¹
kon (streptavidin (SAV) [2]; SAV-BFl, 15 °C, 800 nM, read-out: kon by corrected fluorescence anisotropy rF(t)): 4.38e+07 M⁻¹ s⁻¹
kon (streptavidin (SAV) [2]; SAV-BFl, 15 °C, 800 nM, read-out: kon by fluorescence change F(t)): 4.2e+07 M⁻¹ s⁻¹
kon (streptavidin (SAV) [2]; SAV-BFl, 15 °C, read-out: kon, Average): 4.44e+07 M⁻¹ s⁻¹
kon by corrected fluorescence anisotropy rF(t) (streptavidin (SAV) [2]; SAV-BFl, 20 °C, 200 nM): 62.5 ± 1.6 µM⁻¹ s⁻¹
kon (streptavidin (SAV) [2]; SAV-BFl, 20 °C, 200 nM, read-out: kon by corrected fluorescence anisotropy rF(t)): 6.25e+07 M⁻¹ s⁻¹
kon (streptavidin (SAV) [2]; SAV-BFl, 20 °C, 200 nM, read-out: kon by fluorescence change F(t)): 6.23e+07 M⁻¹ s⁻¹
kon (streptavidin (SAV) [2]; SAV-BFl, 20 °C, read-out: kon, Average): 6.24e+07 M⁻¹ s⁻¹
kon by corrected fluorescence anisotropy rF(t) (streptavidin (SAV) [2]; SAV-BFl, 25 °C, 200 nM): 74.0 ± 2.0 µM⁻¹ s⁻¹
kon (streptavidin (SAV) [2]; SAV-BFl, 25 °C, 200 nM, read-out: kon by corrected fluorescence anisotropy rF(t)): 7.4e+07 M⁻¹ s⁻¹
kon (streptavidin (SAV) [2]; SAV-BFl, 25 °C, 200 nM, read-out: kon by fluorescence change F(t)): 7.54e+07 M⁻¹ s⁻¹
kon (streptavidin (SAV) [2]; SAV-BFl, 25 °C, read-out: kon, Average): 7.47e+07 M⁻¹ s⁻¹
kon (streptavidin (SAV) [2]; SAV, 4°C, calculated by an Arrhenius plot, read-out: kon): 2.6e+07 M⁻¹ s⁻¹
ln(k) (streptavidin (SAV) [2]; SAV, 10 (283.15 K)): 17.6
k(average) (streptavidin (SAV) [2]; SAV, 10 (283.15 K), k (full value)): 4.55E+07
k(average) (streptavidin (SAV) [2]; SAV, 10 (283.15 K), k (scaled)): 45.5
ln(k) (streptavidin (SAV) [2]; SAV, 15 (288.15 K)): 17.8
k(average) (streptavidin (SAV) [2]; SAV, 15 (288.15 K), k (full value)): 5.31E+07
k(average) (streptavidin (SAV) [2]; SAV, 15 (288.15 K), k (scaled)): 53.1
ln(k) (streptavidin (SAV) [2]; SAV, 20 (293.15 K)): 17.9
k(average) (streptavidin (SAV) [2]; SAV, 20 (293.15 K), k (scaled)): 58.6
ln(k) (streptavidin (SAV) [2]; SAV, 25 (298.15 K)): 18.1
k(average) (streptavidin (SAV) [2]; SAV, 25 (298.15 K), k (full value)): 7.47E+07
k(average) (streptavidin (SAV) [2]; SAV, 25 (298.15 K), k (scaled)): 74.7
kon (streptavidin (SAV) [2]; SAV, 25°C and pH 8): 7.5 ± 0.2 x 10^7 M^-1s^-1
Ea^Forward (streptavidin (SAV) [2]; SAV, pH 8): 5.3 ± 0.3 kcal/mol
ΔG^ǂ (streptavidin (SAV) [2]; SAV, pH 8, forward): 3.3 ± 0.6 kcal/mol
ΔS^ǂ (streptavidin (SAV) [2]; SAV, pH 8, forward): 6.6 ± 0.5 cal/°K·mol
kcal/mol (from Arrhenius slope) (streptavidin (SAV) [2]; SAV, ph8): -8101
slope (Arrhenius linear fit) (streptavidin (SAV) [2]; SAV, ph8): -4076.8
kon (streptavidin (SAV) [2]; pH 8, SAV, 25°C and pH 8): ~7.5e+07 M⁻¹ s⁻¹
kon (streptavidin (SAV) [2]; pH 8, SAV, pH 8, 10°C, read-out: kon): 4.54e+07 ± 1e+06 M⁻¹ s⁻¹
kon (streptavidin (SAV) [2]; pH 8, SAV, pH 8, 15°C, read-out: kon): 5.31e+07 ± 2e+06 M⁻¹ s⁻¹
kon (streptavidin (SAV) [2]; pH 8, SAV, pH 8, 20°C, read-out: kon): 5.86e+07 ± 1.6e+06 M⁻¹ s⁻¹
kon (streptavidin (SAV) [2]; pH 8, SAV, pH 8, 25°C, read-out: kon): 7.47e+07 ± 2e+06 M⁻¹ s⁻¹
halftime of association, F¯(t) (streptavidin (SAV) [2]; SAV 200 nM, pH 8, 20°C): 77.3 ms
halftime of association, F¯(t) (streptavidin (SAV) [2]; SAV 400 nM, pH 8, 20°C): 37.7 ms
halftime of association, F¯(t) (streptavidin (SAV) [2]; SAV 800 nM, pH 8, 20°C): 20.6 ms
Natural Lifetime τ° (streptavidin (SAV) [3]; SAV complex, di-ionic fluorescein species): 4.5 ± 0.1
Fraction of Non-Statically Quenched Dye 1-S (streptavidin (SAV) [3]; [5]): 0.18 ± 0.02
Natural Lifetime τ° (streptavidin (SAV) [3]; [5]): 8.1 ± 0.1
1-S (4) = QY/F, fraction of non-statically quenched molecules (streptavidin (SAV) [3]; complex with SAV): 0.14 and 0.14 ± 0.02
F (3) = Sat/t° (streptavidin (SAV) [3]; complex with SAV): 0.80 ± 0.02
S (streptavidin (SAV) [3]; complex with SAV): 0.86
t° (2), intrinsic lifetime of the fluorescence dye (streptavidin (SAV) [3]; complex with SAV): 4.6 ± 0.1
Dynamic Quantum Yield Φ (avidin (AV) [4]; AV complex (AB1)): 0.90 ± 0.02
Fraction of Non-Statically Quenched Dye 1-S (avidin (AV) [4]; AV complex (AB1)): 0.49 ± 0.03
Natural Lifetime τ° (avidin (AV) [4]; AV complex (AB1)): 4.7 ± 0.1
1-S (4) = QY/F, fraction of non-statically quenched molecules (avidin (AV) [4]; complex with AV): 0.49 and 0.49 ± 0.03
F (3) = Sat/t° (avidin (AV) [4]; complex with AV): 0.90 ± 0.02
S (avidin (AV) [4]; complex with AV): 0.51
t° (2), intrinsic lifetime of the fluorescence dye (avidin (AV) [4]; complex with AV, in ns): 4.7 ± 0.1
